# Test results published in US20260217708A1, “FUSED BENZAZEPINE DERIVATIVES FOR USE IN THE TREATMENT OF CANCER AND EPILEPSY” (UCB BIOPHARMA SRL, priority 2023, published 2026).
# Key:
# system Xc^− [1] = target: T1, system Xc^− (Homo sapiens, UniProt Q9UPY5); test: Cystine-induced glutamate release assay; type: cell-based; design: endogenous in cells; host or cells: H4 cells; conditions: H4 cells, sodium-free HEPES buffer, 50 μM L-Cystine, 2 hours, Amplex Red glutamate readout; read-out: pIC50 Cystine-induced glutamate release assay (converted)
# T1 sequence (Q9UPY5 1-501): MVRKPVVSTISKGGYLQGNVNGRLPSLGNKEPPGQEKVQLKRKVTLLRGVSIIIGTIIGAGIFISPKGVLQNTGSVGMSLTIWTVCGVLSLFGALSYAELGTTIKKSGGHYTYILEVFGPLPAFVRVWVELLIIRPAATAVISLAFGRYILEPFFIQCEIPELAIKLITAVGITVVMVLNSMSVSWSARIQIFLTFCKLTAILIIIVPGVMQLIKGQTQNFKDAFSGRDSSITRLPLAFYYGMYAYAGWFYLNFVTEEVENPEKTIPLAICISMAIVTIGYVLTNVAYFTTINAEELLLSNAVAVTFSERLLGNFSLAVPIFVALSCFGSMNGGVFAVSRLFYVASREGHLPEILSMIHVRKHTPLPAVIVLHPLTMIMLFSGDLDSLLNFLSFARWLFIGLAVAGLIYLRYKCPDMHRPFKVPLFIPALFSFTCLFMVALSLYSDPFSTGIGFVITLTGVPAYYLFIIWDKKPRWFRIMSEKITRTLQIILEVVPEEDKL
# T1 sequence (P08195 1-529 partner): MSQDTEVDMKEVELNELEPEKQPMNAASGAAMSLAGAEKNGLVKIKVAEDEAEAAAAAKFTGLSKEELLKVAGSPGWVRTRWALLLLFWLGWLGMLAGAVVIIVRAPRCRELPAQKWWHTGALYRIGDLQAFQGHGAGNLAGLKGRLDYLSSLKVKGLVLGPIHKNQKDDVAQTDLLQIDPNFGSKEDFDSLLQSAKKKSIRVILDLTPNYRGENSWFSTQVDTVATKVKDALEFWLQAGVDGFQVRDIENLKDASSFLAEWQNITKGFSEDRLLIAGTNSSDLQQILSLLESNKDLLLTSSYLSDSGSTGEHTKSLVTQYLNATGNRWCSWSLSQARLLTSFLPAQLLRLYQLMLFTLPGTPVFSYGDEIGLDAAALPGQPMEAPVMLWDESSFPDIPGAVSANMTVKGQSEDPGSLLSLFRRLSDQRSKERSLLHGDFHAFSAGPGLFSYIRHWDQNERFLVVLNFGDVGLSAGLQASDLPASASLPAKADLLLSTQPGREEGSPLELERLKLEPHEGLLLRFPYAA
# Procedure, shortened: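 IC50 (reported as pIC50) normalized to DMSO 1% and Erastin 50 μM controls, from Amplex Red fluorescence of glutamate exported into supernatant. H4 cells were washed into sodium-free buffer to exclude EAAT transport, then given compound with 50 μM L-cystine for 2 h in the incubator.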
# system Xc^− [2] = target: T1, system Xc^−; test: [^14C]L-Cystine uptake assay; type: cell-based; design: endogenous in cells; host or cells: H4 cells; conditions: H4 cells, sodium-free HEPES buffer, 0.5 μM L-[14C]Cystine and 4.5 μM L-Cystine, 1 hour at 37° C.; read-out: pIC50 [^14C] L-Cystine uptake assay (converted)
# Procedure, shortened: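 Compound effect is given as pIC50, taken between controls of 1% DMSO and 50 μM Erastin. Human H4 cells were pretreated 15 min with compound in sodium-free buffer, then took up 0.5 μM [14C]cystine with 4.5 μM cold cystine for 1 hour at 37° C, read by scintillation proximity counting.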
Structure (SMILES),IC50 (system Xc^− [1]) [nM],IC50 (system Xc^− [2]) [nM]
"Cc1cc2c(c(F)n1)-c1cccnc1[C@@H](C)C(=O)N2CC(=O)Nc1ccc(C(C)(F)F)cc1 [#149, N-[4-(1,1-difluoroethyl)phenyl]-2-[(10R)-3-fluoro-5,10-dimethyl-9-oxo-4,8,12-triazatricyclo[9.4.0.0^2,7]pentadeca-1(11),2(7),3,5,12,14-hexaen-8-yl]acetamide]",15.8 to 39.8,< 15.8
"Cc1cc2c(c(F)n1)-c1cccnc1[C@@H](C)C(=O)N2CC(=O)Nc1ccc(Cl)c(Cl)c1 [#150, N-(3,4-dichlorophenyl)-2-[(10R)-3-fluoro-5,10-dimethyl-9-oxo-4,8,12-triazatricyclo[9.4.0.0^2,7]pentadeca-1(11),2(7),3,5,12,14-hexaen-8-yl]acetamide]",39.8 to 100,15.8 to 39.8
Cc1cc2c(c(F)n1)-c1cccnc1[C@@H](C)C(=O)N2CC(=O)Nc1ccc(C(F)F)cc1 [#151],< 15.8,< 15.8
"Cc1cc2c(c(F)n1)-c1cccnc1C(CO)C(=O)N2CC(=O)Nc1ccc(C(F)(F)F)cc1 (stereo not shown) [#152, 2-[3-fluoro-10-(hydroxymethyl)-5-methyl-9-oxo-4,8,12-triazatricyclo[9.4.0.0^2,7]pentadeca-1(11),2(7),3,5,12,14-hexaen-8-yl]-N-[4-(trifluoromethyl)phenyl]acetamide]",39.8 to 100,15.8 to 39.8
"Cc1cc2c(c(C#N)n1)-c1cccnc1CC(=O)N2CC(=O)Nc1ccc(C(F)(F)F)cc1 [#153, 2-(3-cyano-5-methyl-9-oxo-4,8,12-triazatricyclo[9.4.0.0^2,7]pentadeca-1(11),2(7),3,5,12,14-hexaen-8-yl)-N-[4-(trifluoromethyl)phenyl]acetamide]",15.8 to 39.8,15.8 to 39.8
"Cc1cc2c(c(C#N)n1)-c1cccnc1C(C)C(=O)N2CC(=O)Nc1ccc(C(F)(F)F)cc1 (stereo not shown) [#154, 2-(3-cyano-5,10-dimethyl-9-oxo-4,8,12-triazatricyclo[9.4.0.0^2,7]pentadeca-1(11),2(7),3,5,12,14-hexaen-8-yl)-N-[4-(trifluoromethyl)phenyl]acetamide]",15.8 to 39.8,< 15.8
"Cc1cc2c(c(=O)[nH]1)-c1ccccc1C(C)C(=O)N2CC(=O)Nc1ccc(C(F)(F)F)cc1 (stereo not shown) [#156, 2-(3,7-dimethyl-1,6-dioxo-2,7-dihydropyrido[4,3-d][3]benzazepin-5-yl)-N-[4-(trifluoromethyl)phenyl]acetamide]",15.8 to 39.8,39.8 to 100
"COc1nc(C)cc2c1-c1cncnc1C(C)C(=O)N2CC(=O)Nc1ccc(C(F)(F)F)cc1 (stereo not shown) [#157, 2-(15-methoxy-8,13-dimethyl-9-oxo-4,6,10,14-tetrazatricyclo[9.4.0.0^2,7]pentadeca-1(11),2(7),3,5,12,14-hexaen-10-yl)-N-[4-(trifluoromethyl)phenyl]acetamide]",15.8 to 39.8,< 15.8
"Cc1cc2c(c(F)n1)-c1cccnc1[C@@H](C)C(=O)N2CC(=O)Nc1ccc(Br)c(F)c1 [#158, N-(4-bromo-3-fluoro-phenyl)-2-[(10R)-3-fluoro-5,10-dimethyl-9-oxo-4,8,12-triazatricyclo[9.4.0.0^2,7]pentadeca-1(11),2(7),3,5,12,14-hexaen-8-yl]acetamide]",15.8 to 39.8,< 15.8
"COC1C(=O)N(CC(=O)Nc2ccc(C(F)(F)F)cc2)c2cc(C)nc(Cl)c2-c2cccnc21 (stereo not shown) [#159, 2-(3-chloro-10-methoxy-5-methyl-9-oxo-4,8,12-triazatricyclo[9.4.0.0^2,7]pentadeca-1(11),2(7),3,5,12,14-hexaen-8-yl)-N-[4-(trifluoromethyl)phenyl]acetamide]",39.8 to 100,15.8 to 39.8
"Cc1cc2c(c(Cl)n1)-c1cncc(F)c1CC(=O)N2CC(=O)Nc1ccc(C(F)(F)F)cc1 [#160, 2-(3-chloro-12-fluoro-5-methyl-9-oxo-4,8,14-triazatricyclo[9.4.0.0^2,7]pentadeca-1(11),2(7),3,5,12,14-hexaen-8-yl)-N-[4-(trifluoromethyl)phenyl]acetamide]",100 to 501,15.8 to 39.8
